The structures appear in SMILES notation.

The target of the experiment is T1, STK32C (YANK3) (Homo sapiens, UniProt Q86UX6).
T1 construct: purchased Thermo Fisher Scientific (Life Technologies) SelectScreen
Nature of the experiment: SelectScreen LanthaScreen. It is filed as binding. The settings on record: read-out: % displacement. The method, boiled down:
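SelectScreen broad panel; activity (Z'LYTE, Adapta) plus binding formats. ATP: Km app for CSF1R Z'LYTE; 10 for CAMK1 Adapta. Readout = % per kinase.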
In general terms: Time-resolved FRET reads energy transfer from a long-lived donor to a nearby acceptor.

T1 sequence (Q86UX6 whole entry): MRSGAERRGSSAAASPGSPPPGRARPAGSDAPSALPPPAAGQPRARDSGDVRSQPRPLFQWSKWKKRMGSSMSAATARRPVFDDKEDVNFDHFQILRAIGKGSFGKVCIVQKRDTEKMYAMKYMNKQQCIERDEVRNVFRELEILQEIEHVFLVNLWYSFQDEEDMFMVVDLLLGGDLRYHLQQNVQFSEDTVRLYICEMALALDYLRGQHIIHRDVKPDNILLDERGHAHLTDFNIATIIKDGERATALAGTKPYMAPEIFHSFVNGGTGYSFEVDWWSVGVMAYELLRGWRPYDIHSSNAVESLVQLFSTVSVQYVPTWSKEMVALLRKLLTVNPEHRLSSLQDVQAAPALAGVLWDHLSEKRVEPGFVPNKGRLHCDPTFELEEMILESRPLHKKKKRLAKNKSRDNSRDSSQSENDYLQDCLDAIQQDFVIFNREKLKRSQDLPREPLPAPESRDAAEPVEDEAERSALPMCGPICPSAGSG

As for `CN(C(=O)CN1CCOCC1)c1ccc2sc3c(-c4cccc5c(=O)cc(N6CC7CCC(C6)O7)oc45)cccc3c2c1` [NU5455], the inhibition at 1 µM was 4.2%.

For the origin of these results see article PMC6934184, “Selective DNA-PKcs inhibition extends the therapeutic index of localized radiotherapy and chemotherapy” (The Journal of Clinical Investigation, 2019).
